Measured values published in the NIST ThermoML archive (doi:10.1007/s10765-009-0602-6).

Experiment: molar heat capacity at constant volume; xn = mol fraction of the nth substance listed
Settings: x1 = 0.2607

N [ammonia] + O
Settings | molar heat capacity at constant volume [J/K/mol]
581.09 K, Fluid (supercritical or subcritical phases), Mass density=476.25 kg/m3, isochoric heat capacity | 67.71
581.18 K, Fluid (supercritical or subcritical phases), Mass density=476.25 kg/m3, isochoric heat capacity | 67.34
581.36 K, Fluid (supercritical or subcritical phases), Mass density=476.25 kg/m3, isochoric heat capacity | 66.28
581.54 K, Fluid (supercritical or subcritical phases), Mass density=476.25 kg/m3, isochoric heat capacity | 66.75
581.62 K, Fluid (supercritical or subcritical phases), Mass density=476.25 kg/m3, isochoric heat capacity | 66.08
584.62 K, Fluid (supercritical or subcritical phases), Mass density=476.25 kg/m3, isochoric heat capacity | 65.81
584.71 K, Fluid (supercritical or subcritical phases), Mass density=476.25 kg/m3, isochoric heat capacity | 65.01
584.8 K, Fluid (supercritical or subcritical phases), Mass density=476.25 kg/m3, isochoric heat capacity | 64.64
584.88 K, Fluid (supercritical or subcritical phases), Mass density=476.25 kg/m3, isochoric heat capacity | 65.32
584.95 K, Fluid (supercritical or subcritical phases), Mass density=456.58 kg/m3, isochoric heat capacity | 82.04
584.95 K, Liquid, Isochoric heat capacity | 82.04
584.97 K, Fluid (supercritical or subcritical phases), Mass density=476.25 kg/m3, isochoric heat capacity | 65.26
584.98 K, Fluid (supercritical or subcritical phases), Mass density=456.58 kg/m3, isochoric heat capacity | 80.98
585.15 K, Fluid (supercritical or subcritical phases), Mass density=476.25 kg/m3, isochoric heat capacity | 64.62
585.16 K, Fluid (supercritical or subcritical phases), Mass density=456.58 kg/m3, isochoric heat capacity | 80.57
585.31 K, Fluid (supercritical or subcritical phases), Mass density=120.03 kg/m3, isochoric heat capacity | 115.43
585.31 K, Liquid, Isochoric heat capacity | 115.43
585.34 K, Fluid (supercritical or subcritical phases), Mass density=120.03 kg/m3, isochoric heat capacity | 110.25
585.4 K, Fluid (supercritical or subcritical phases), Mass density=120.03 kg/m3, isochoric heat capacity | 96.96
585.42 K, Fluid (supercritical or subcritical phases), Mass density=456.58 kg/m3, isochoric heat capacity | 79.9
585.48 K, Fluid (supercritical or subcritical phases), Mass density=120.03 kg/m3, isochoric heat capacity | 94.87
585.5 K, Fluid (supercritical or subcritical phases), Mass density=456.58 kg/m3, isochoric heat capacity | 80.27
585.62 K, Fluid (supercritical or subcritical phases), Mass density=120.03 kg/m3, isochoric heat capacity | 76.93
585.68 K, Fluid (supercritical or subcritical phases), Mass density=456.58 kg/m3, isochoric heat capacity | 78.28
585.94 K, Fluid (supercritical or subcritical phases), Mass density=120.03 kg/m3, isochoric heat capacity | 64.29
586.02 K, Fluid (supercritical or subcritical phases), Mass density=120.03 kg/m3, isochoric heat capacity | 59.53
586.11 K, Fluid (supercritical or subcritical phases), Mass density=120.03 kg/m3, isochoric heat capacity | 58.12
586.2 K, Fluid (supercritical or subcritical phases), Mass density=120.03 kg/m3, isochoric heat capacity | 53.99
586.28 K, Fluid (supercritical or subcritical phases), Mass density=120.03 kg/m3, isochoric heat capacity | 54.52
586.37 K, Fluid (supercritical or subcritical phases), Mass density=120.03 kg/m3, isochoric heat capacity | 51.14
587.06 K, Fluid (supercritical or subcritical phases), Mass density=456.58 kg/m3, isochoric heat capacity | 75.4
587.24 K, Fluid (supercritical or subcritical phases), Mass density=456.58 kg/m3, isochoric heat capacity | 75.97
587.41 K, Fluid (supercritical or subcritical phases), Mass density=456.58 kg/m3, isochoric heat capacity | 75.31
587.5 K, Fluid (supercritical or subcritical phases), Mass density=456.58 kg/m3, isochoric heat capacity | 74.46
587.58 K, Fluid (supercritical or subcritical phases), Mass density=456.58 kg/m3, isochoric heat capacity | 76.18
594.14 K, Fluid (supercritical or subcritical phases), Mass density=147.43 kg/m3, isochoric heat capacity | 103.92
594.14 K, Liquid, Isochoric heat capacity | 103.92
594.15 K, Fluid (supercritical or subcritical phases), Mass density=147.43 kg/m3, isochoric heat capacity | 93.04
594.23 K, Fluid (supercritical or subcritical phases), Mass density=147.43 kg/m3, isochoric heat capacity | 91.23
594.32 K, Fluid (supercritical or subcritical phases), Mass density=147.43 kg/m3, isochoric heat capacity | 82.61
594.49 K, Fluid (supercritical or subcritical phases), Mass density=147.43 kg/m3, isochoric heat capacity | 80.43
594.58 K, Fluid (supercritical or subcritical phases), Mass density=120.03 kg/m3, isochoric heat capacity | 43.51
594.58 K, Fluid (supercritical or subcritical phases), Mass density=147.43 kg/m3, isochoric heat capacity | 67.31
594.66 K, Fluid (supercritical or subcritical phases), Mass density=120.03 kg/m3, isochoric heat capacity | 46.88
594.66 K, Fluid (supercritical or subcritical phases), Mass density=147.43 kg/m3, isochoric heat capacity | 62.24
594.75 K, Fluid (supercritical or subcritical phases), Mass density=120.03 kg/m3, isochoric heat capacity | 46.35
594.75 K, Fluid (supercritical or subcritical phases), Mass density=147.43 kg/m3, isochoric heat capacity | 60.82
594.78 K, Fluid (supercritical or subcritical phases), Mass density=120.03 kg/m3, isochoric heat capacity | 43.67
594.84 K, Fluid (supercritical or subcritical phases), Mass density=147.43 kg/m3, isochoric heat capacity | 66.35
594.92 K, Fluid (supercritical or subcritical phases), Mass density=147.43 kg/m3, isochoric heat capacity | 53.4
595.01 K, Fluid (supercritical or subcritical phases), Mass density=120.03 kg/m3, isochoric heat capacity | 47.77
595.09 K, Fluid (supercritical or subcritical phases), Mass density=147.43 kg/m3, isochoric heat capacity | 56.72
595.1 K, Fluid (supercritical or subcritical phases), Mass density=456.58 kg/m3, isochoric heat capacity | 70.87
595.16 K, Fluid (supercritical or subcritical phases), Mass density=376.89 kg/m3, isochoric heat capacity | 99.09
595.16 K, Liquid, Isochoric heat capacity | 99.09
595.18 K, Fluid (supercritical or subcritical phases), Mass density=147.43 kg/m3, isochoric heat capacity | 52.64
595.18 K, Fluid (supercritical or subcritical phases), Mass density=376.89 kg/m3, isochoric heat capacity | 96.84
595.18 K, Fluid (supercritical or subcritical phases), Mass density=456.58 kg/m3, isochoric heat capacity | 70.11
595.27 K, Fluid (supercritical or subcritical phases), Mass density=376.89 kg/m3, isochoric heat capacity | 95.54
595.35 K, Fluid (supercritical or subcritical phases), Mass density=456.58 kg/m3, isochoric heat capacity | 71.12
595.44 K, Fluid (supercritical or subcritical phases), Mass density=147.43 kg/m3, isochoric heat capacity | 50.03
595.44 K, Fluid (supercritical or subcritical phases), Mass density=376.89 kg/m3, isochoric heat capacity | 96.07
595.44 K, Fluid (supercritical or subcritical phases), Mass density=456.58 kg/m3, isochoric heat capacity | 68.76
595.53 K, Fluid (supercritical or subcritical phases), Mass density=376.89 kg/m3, isochoric heat capacity | 92.7
595.53 K, Fluid (supercritical or subcritical phases), Mass density=456.58 kg/m3, isochoric heat capacity | 71.34
595.61 K, Fluid (supercritical or subcritical phases), Mass density=376.89 kg/m3, isochoric heat capacity | 94.85
595.61 K, Fluid (supercritical or subcritical phases), Mass density=456.58 kg/m3, isochoric heat capacity | 68.53
595.7 K, Fluid (supercritical or subcritical phases), Mass density=147.43 kg/m3, isochoric heat capacity | 52.76
595.7 K, Fluid (supercritical or subcritical phases), Mass density=456.58 kg/m3, isochoric heat capacity | 70.96
595.78 K, Fluid (supercritical or subcritical phases), Mass density=376.89 kg/m3, isochoric heat capacity | 89.45
595.87 K, Fluid (supercritical or subcritical phases), Mass density=376.89 kg/m3, isochoric heat capacity | 91.17
595.96 K, Fluid (supercritical or subcritical phases), Mass density=376.89 kg/m3, isochoric heat capacity | 88.44
597.16 K, Fluid (supercritical or subcritical phases), Mass density=376.89 kg/m3, isochoric heat capacity | 87.9
597.35 K, Fluid (supercritical or subcritical phases), Mass density=160.07 kg/m3, isochoric heat capacity | 101.99
597.36 K, Liquid, Isochoric heat capacity | 101.99
597.38 K, Fluid (supercritical or subcritical phases), Mass density=160.07 kg/m3, isochoric heat capacity | 81.69
597.43 K, Fluid (supercritical or subcritical phases), Mass density=160.07 kg/m3, isochoric heat capacity | 69.47
597.5 K, Fluid (supercritical or subcritical phases), Mass density=376.89 kg/m3, isochoric heat capacity | 85.95
597.53 K, Fluid (supercritical or subcritical phases), Mass density=160.07 kg/m3, isochoric heat capacity | 62.62
597.56 K, Fluid (supercritical or subcritical phases), Mass density=342.18 kg/m3, isochoric heat capacity | 110.99
597.56 K, Liquid, Isochoric heat capacity | 110.99
